Paper PMC9358669, “Native metabolomics identifies the rivulariapeptolide family of protease inhibitors” (Nature Communications, 2022)
Where two headings read alike, the source gives them in different places.

Tests used:
[1] = molecular target: T1, Elastase (Sus scrofa, UniProt P00772); assay: Elastase inhibition, fluorogenic substrate assay (MeOSuc-Ala-Ala-Pro-Val-AMC); format: biochemical, Sus domesticus; conditions: 40 min pre-incubation; for IC50: mean, n = 3; for Mean (RFU/s): Elastase
T1 construct: purchased Sigma-Aldrich
T1 sequence (P00772 27-266): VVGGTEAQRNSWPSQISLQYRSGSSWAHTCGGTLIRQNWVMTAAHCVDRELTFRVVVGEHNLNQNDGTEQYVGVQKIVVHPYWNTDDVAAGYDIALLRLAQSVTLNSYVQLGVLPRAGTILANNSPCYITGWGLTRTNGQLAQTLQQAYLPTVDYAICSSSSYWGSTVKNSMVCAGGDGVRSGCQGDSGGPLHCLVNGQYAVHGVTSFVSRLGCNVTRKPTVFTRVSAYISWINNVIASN

[2] = molecular target: T2, Chymotrypsin (Bos taurus, UniProt P00766); assay: Chymotrypsin inhibition, fluorogenic substrate assay (Suc-Ala-Ala-Pro-Phe-AMC); format: biochemical; conditions: for Mean (RFU/s): Chymotrypsin
T2 construct: purchased Sigma-Aldrich

[3] = molecular target: T3, Proteinase K (Parengyodontium album, UniProt P06873); assay: Proteinase K inhibition, fluorogenic substrate assay (Suc-Ala-Ala-Pro-Phe-AMC); format: biochemical, Tritirachium album; conditions: 40 min pre-incubation; for IC50: mean, n = 3; for Mean (RFU/s): Proteinase K
T3 construct: purchased Roche
T3 sequence (P06873 106-384): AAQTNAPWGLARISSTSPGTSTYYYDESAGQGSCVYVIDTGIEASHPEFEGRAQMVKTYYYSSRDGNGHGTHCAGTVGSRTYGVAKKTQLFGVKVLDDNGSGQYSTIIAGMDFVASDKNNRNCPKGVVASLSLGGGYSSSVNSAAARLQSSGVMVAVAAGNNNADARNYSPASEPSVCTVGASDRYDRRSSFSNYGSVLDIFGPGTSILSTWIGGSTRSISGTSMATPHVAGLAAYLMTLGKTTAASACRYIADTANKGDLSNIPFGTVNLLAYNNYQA

[4] = inhibitor concentration 0.0508053 nM
[5] = inhibitor concentration 0.152416 nM
[6] = inhibitor concentration 0.457247 nM
[7] = inhibitor concentration 1.37174 nM
[8] = inhibitor concentration 4.11523 nM
[9] = inhibitor concentration 12.3457 nM
[10] = inhibitor concentration 37.037 nM
[11] = inhibitor concentration 111.111 nM
[12] = inhibitor concentration 333.333 nM
[13] = inhibitor concentration 1000 nM
[14] = inhibitor concentration 3000 nM
[15] = 40 min pre-incubation, mean, n = 3, read-out: IC50 Chymotrypsin
[16] = inhibitor concentration 0.0508053 nM, 40 min pre-incubation
[17] = inhibitor concentration 0.152416 nM, 40 min pre-incubation
[18] = inhibitor concentration 0.457247 nM, 40 min pre-incubation
[19] = inhibitor concentration 1.37174 nM, 40 min pre-incubation
[20] = inhibitor concentration 4.11523 nM, 40 min pre-incubation
[21] = inhibitor concentration 12.3457 nM, 40 min pre-incubation
[22] = inhibitor concentration 37.037 nM, 40 min pre-incubation
[23] = inhibitor concentration 111.111 nM, 40 min pre-incubation
[24] = inhibitor concentration 333.333 nM, 40 min pre-incubation
[25] = inhibitor concentration 1000 nM, 40 min pre-incubation
[26] = inhibitor concentration 3000 nM, 40 min pre-incubation
[27] = Supplementary Table 5, compounds of this study, read-out: Chymotrypsin IC50

Row | Structure (SMILES) | IC50 [1] | Mean (RFU/s) [1, 4] | Mean (RFU/s) [1, 5] | Mean (RFU/s) [1, 6] | Mean (RFU/s) [1, 7] | Mean (RFU/s) [1, 8] | Mean (RFU/s) [1, 9] | Mean (RFU/s) [1, 10] | Mean (RFU/s) [1, 11] | Mean (RFU/s) [1, 12] | Mean (RFU/s) [1, 13] | Mean (RFU/s) [1, 14] | IC50 [2, 15] | Mean (RFU/s) [2, 16] | Mean (RFU/s) [2, 17] | Mean (RFU/s) [2, 18] | Mean (RFU/s) [2, 19] | Mean (RFU/s) [2, 20] | Mean (RFU/s) [2, 21] | Mean (RFU/s) [2, 22] | further results
1 | CC=C1NC(=O)[C@@H](NC(=O)[C@@H](NC(=O)[C@@H]2CCCN2C(=O)CCC)[C@@H](C)OC(=O)C2CCCN2C(=O)CCC)[C@@H](C)OC(=O)[C@H](C(C)C)NC(=O)[C@H](Cc2ccc(O)cc2)N(C)C(=O)[C@H](CC(C)C)N2C(=O)[C@H](CC[C@H]2O)NC1=O (some centres unmarked) [Rivulariapeptolide 1121, rivulariapeptolide 1121] | 13.2 nM | 0.8433 RFU/s | 0.7923 RFU/s | 0.7877 RFU/s | 0.7943 RFU/s | 0.7343 RFU/s | 0.4323 RFU/s | 0.094 RFU/s | 0.02167 RFU/s | 0 RFU/s | 0 RFU/s | 0 RFU/s | 35.5 nM | 4.522 RFU/s | 4.745 RFU/s | 4.969 RFU/s | 4.65 RFU/s | 4.6 RFU/s | 4.156 RFU/s | 1.852 RFU/s | Mean (RFU/s) [2, 23]: 1.527 RFU/s; Mean (RFU/s) [2, 24]: 0.623 RFU/s; Mean (RFU/s) [2, 25]: 0.1967 RFU/s; Mean (RFU/s) [2, 26]: 0 RFU/s; IC50 [2, 27]: 35.5 nM; IC50 [3]: 48 nM; Mean (RFU/s) [3, 4]: 6.561 RFU/s; Mean (RFU/s) [3, 5]: 6.281 RFU/s; Mean (RFU/s) [3, 6]: 6.268 RFU/s; Mean (RFU/s) [3, 7]: 6.292 RFU/s; Mean (RFU/s) [3, 8]: 6.214 RFU/s; Mean (RFU/s) [3, 9]: 5.471 RFU/s; Mean (RFU/s) [3, 10]: 4.069 RFU/s; Mean (RFU/s) [3, 11]: 0.93 RFU/s; Mean (RFU/s) [3, 12]: 0.1023 RFU/s; Mean (RFU/s) [3, 13]: 0 RFU/s; Mean (RFU/s) [3, 14]: 0 RFU/s
2 | CC=C1NC(=O)[C@@H](NC(=O)[C@@H](NC(=O)[C@@H]2CCCN2C(=O)CCC)[C@@H](C)OC(=O)C2CCCN2C(=O)CCC)[C@@H](C)OC(=O)[C@H](C(C)C)NC(=O)[C@H](Cc2ccc(O)cc2)N(C)C(=O)[C@H](Cc2ccccc2)N2C(=O)[C@H](CC[C@H]2O)NC1=O (some centres unmarked) [Rivulariapeptolide 1155, rivulariapeptolide 1155] | 4.94 nM | 0.9773 RFU/s | 0.8963 RFU/s | 0.839 RFU/s | 0.7733 RFU/s | 0.5503 RFU/s | 0.1703 RFU/s | 0.054 RFU/s | 0 RFU/s | 0 RFU/s | 0 RFU/s | 0 RFU/s | 41.8 nM | 5.293 RFU/s | 5.198 RFU/s | 5.411 RFU/s | 5.774 RFU/s | 4.968 RFU/s | 4.399 RFU/s | 2.874 RFU/s | Mean (RFU/s) [2, 23]: 1.339 RFU/s; Mean (RFU/s) [2, 24]: 0.494 RFU/s; Mean (RFU/s) [2, 25]: 0.1737 RFU/s; Mean (RFU/s) [2, 26]: 0 RFU/s; IC50 [2, 27]: 41.8 nM; IC50 [3]: 56.5 nM; Mean (RFU/s) [3, 4]: 6.603 RFU/s; Mean (RFU/s) [3, 5]: 6.245 RFU/s; Mean (RFU/s) [3, 6]: 6.403 RFU/s; Mean (RFU/s) [3, 7]: 6.159 RFU/s; Mean (RFU/s) [3, 8]: 6.088 RFU/s; Mean (RFU/s) [3, 9]: 5.497 RFU/s; Mean (RFU/s) [3, 10]: 4.358 RFU/s; Mean (RFU/s) [3, 11]: 1.504 RFU/s; Mean (RFU/s) [3, 12]: 0.363 RFU/s; Mean (RFU/s) [3, 13]: 0.09033 RFU/s; Mean (RFU/s) [3, 14]: 0.027 RFU/s
